# Experimental data as given in PubChem BioAssay AID2060907 (Molecular Pharmacology Branch, DTP, NCI, 2025).
# Test system: 388556-164-R-J1-PDC complex spheroid viability
# Assay: Anticancer human tumor 388556-164-R-J1-PDC patient-derived colon adenocarcinoma cell line growth inhibition [RAS]
# Details: for IC50: curve of first compound; for viability, T/C: stronger effect = lower value
# How it was run: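 Tumour cells grown as complex spheroids with HUVEC endothelial cells and mesenchymal stem cells, treated with RAS pathway inhibitor combinations. Each agent spans half-log steps from near clinical Cmax, or 10 microM where Cmax is unknown.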
# [1] = second compound 0.00316 µM, first compound 0.00316 µM
# [2] = second compound 0.00316 µM, first compound 0.01 µM
# [3] = second compound 0.00316 µM, first compound 0.0316 µM
# [4] = second compound 0.00316 µM, first compound 0.1 µM
# [5] = second compound 0.00316 µM, first compound 0.316 µM
# [6] = second compound 0.00316 µM, first compound 1 µM
# [7] = second compound 0.01 µM, first compound 0.00316 µM
# [8] = second compound 0.01 µM, first compound 0.01 µM
# [9] = second compound 0.01 µM, first compound 0.0316 µM
# [10] = second compound 0.01 µM, first compound 0.1 µM
# [11] = second compound 0.01 µM, first compound 0.316 µM
# [12] = second compound 0.01 µM, first compound 1 µM
# [13] = second compound 0.0316 µM, first compound 0.00316 µM
# [14] = second compound 0.0316 µM, first compound 0.01 µM
# [15] = second compound 0.0316 µM, first compound 0.0316 µM
# [16] = second compound 0.0316 µM, first compound 0.1 µM
# [17] = second compound 0.0316 µM, first compound 0.316 µM
# [18] = second compound 0.0316 µM, first compound 1 µM
# [19] = second compound 0.1 µM, first compound 0.00316 µM
# [20] = second compound 0.1 µM, first compound 0.01 µM
# [21] = second compound 0.1 µM, first compound 0.0316 µM
# [22] = second compound 0.1 µM, first compound 0.1 µM
# [23] = second compound 0.1 µM, first compound 0.316 µM
# [24] = second compound 0.1 µM, first compound 1 µM
# [25] = second compound 0.316 µM, first compound 0.00316 µM
# [26] = second compound 0.316 µM, first compound 0.01 µM
# [27] = second compound 0.316 µM, first compound 0.0316 µM
# [28] = second compound 0.316 µM, first compound 0.1 µM
# [29] = second compound 0.316 µM, first compound 0.316 µM
# [30] = second compound 0.316 µM, first compound 1 µM
# [31] = second compound 1 µM, first compound 0.00316 µM
# [32] = second compound 1 µM, first compound 0.01 µM
# [33] = second compound 1 µM, first compound 0.0316 µM
# [34] = second compound 1 µM, first compound 0.1 µM
# [35] = second compound 1 µM, first compound 0.316 µM
# [36] = second compound 1 µM, first compound 1 µM
# 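Also: spheroids exposed to compound for 7 days before readout.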
# 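For viability, T/C in this document: 100% = DMSO vehicle control luminescence.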
smiles,measurement,setting,value
C=CC(=O)Nc1cc(Nc2nccc(-c3cn(C)c4ccccc34)n2)c(OC)cc1N(C)CCN(C)C + C=CC(=O)N1CCN(c2nc(OCC3CCCN3C)nc3c(F)c(-c4nc(N)cc(C)c4C(F)(F)F)c(Cl)cc23)C(C)C1,IC50,second compound 0.00316 µM,> 1000 nM
same,IC50,second compound 0.01 µM,> 1000 nM
same,IC50,second compound 0.0316 µM,> 1000 nM
same,IC50,second compound 0.1 µM,> 1000 nM
same,IC50,second compound 0.316 µM,> 1000 nM
same,IC50,second compound 1 µM,> 1000 nM
same,"viability, T/C",[1],110%
same,"viability, T/C",[2],99.2%
same,"viability, T/C",[3],92.6%
same,"viability, T/C",[4],80.3%
same,"viability, T/C",[5],68.6%
same,"viability, T/C",[6],52.8%
same,"viability, T/C",[7],104%
same,"viability, T/C",[8],103%
same,"viability, T/C",[9],101%
same,"viability, T/C",[10],90.1%
same,"viability, T/C",[11],68.4%
same,"viability, T/C",[12],58%
same,"viability, T/C",[13],102%
same,"viability, T/C",[14],99%
same,"viability, T/C",[15],94%
same,"viability, T/C",[16],87.3%
same,"viability, T/C",[17],70.3%
same,"viability, T/C",[18],61.2%
same,"viability, T/C",[19],100%
same,"viability, T/C",[20],99.4%
same,"viability, T/C",[21],91.1%
same,"viability, T/C",[22],90.6%
same,"viability, T/C",[23],72.9%
same,"viability, T/C",[24],54.6%
same,"viability, T/C",[25],99.2%
same,"viability, T/C",[26],110%
same,"viability, T/C",[27],103%
same,"viability, T/C",[28],94.5%
same,"viability, T/C",[29],76.1%
same,"viability, T/C",[30],58.8%
same,"viability, T/C",[31],90.6%
same,"viability, T/C",[32],100%
same,"viability, T/C",[33],93.5%
same,"viability, T/C",[34],96.4%
same,"viability, T/C",[35],73.3%
same,"viability, T/C",[36],54.9%
O=C(c1ccc(F)c(F)c1Nc1ccc(I)cc1F)N1CC(O)([C@@H]2CCCCN2)C1 + C=CC(=O)N1CCN(c2nc(OCC3CCCN3C)nc3c(F)c(-c4nc(N)cc(C)c4C(F)(F)F)c(Cl)cc23)C(C)C1,IC50,second compound 0.00316 µM,129 nM
same,IC50,second compound 0.01 µM,158 nM
same,IC50,second compound 0.0316 µM,159 nM
same,IC50,second compound 0.1 µM,191 nM
same,IC50,second compound 0.316 µM,150 nM
same,IC50,second compound 1 µM,144 nM
same,"viability, T/C",[1],97.8%
same,"viability, T/C",[2],90.8%
same,"viability, T/C",[3],83.7%
same,"viability, T/C",[4],53.5%
same,"viability, T/C",[5],33.5%
same,"viability, T/C",[6],22.8%
same,"viability, T/C",[7],106%
same,"viability, T/C",[8],90.3%
same,"viability, T/C",[9],78.2%
same,"viability, T/C",[10],61.2%
same,"viability, T/C",[11],34.5%
same,"viability, T/C",[12],20.1%
same,"viability, T/C",[13],92%
same,"viability, T/C",[14],94.4%
same,"viability, T/C",[15],82.7%
same,"viability, T/C",[16],59.8%
same,"viability, T/C",[17],35%
same,"viability, T/C",[18],18.9%
same,"viability, T/C",[19],91.6%
same,"viability, T/C",[20],96%
same,"viability, T/C",[21],86.5%
same,"viability, T/C",[22],65.4%
same,"viability, T/C",[23],38.1%
same,"viability, T/C",[24],23.3%
same,"viability, T/C",[25],95.6%
same,"viability, T/C",[26],97%
same,"viability, T/C",[27],84.5%
same,"viability, T/C",[28],58.6%
same,"viability, T/C",[29],34%
same,"viability, T/C",[30],21.6%
same,"viability, T/C",[31],97.3%
same,"viability, T/C",[32],96.8%
same,"viability, T/C",[33],86.1%
same,"viability, T/C",[34],61.5%
same,"viability, T/C",[35],26.7%
same,"viability, T/C",[36],18.9%
